These are literature values, as cited in publication PMC7898808 (Diabetes, Obesity & Metabolism, 2020).

One data set has as its system fructose-stimulated DNL. Particulars: single dose of 20 mg, healthy population.
In the next data set the test system is NAFLD patients. Particulars: 20 mg for 12 weeks.
Another data set deals with steady-state DNL. Particulars: repeat dosing in NASH subjects.

Read-outs that look alike come from different tables or passages of the source.

Consider `COc1ccccc1[C@H](Cn1c(=O)n(C(C)(C)C(=O)O)c(=O)c2c(C)c(-c3ncco3)sc21)OC1CCOCC1` [GS-0976], for which the “reduction of fructose-stimulated DNL” value with fructose-stimulated DNL is given as 70%. Further, in the data set on NAFLD patients, the “patients achieving relative MRI-PDFF reduction of ≥30%” value was 43%. For the same molecule, the “decrease of steady-state DNL” value in the data set on steady-state DNL is given as 22%.
For `Cc1nnc(-c2cc(C(=O)N3CCC(c4ccc(C#N)cc4)CC3)c(C)cc2C2CCC2)[nH]1` [TVB-2640], the DNL inhibition is 23% with hepatic DNL (50 mg daily dosing for 10 days), 65% in the data set on hepatic DNL (100 mg daily dosing for 10 days) and 77% in the data set on hepatic DNL (150 mg daily dosing for 10 days).
